In ChEMBL document CHEMBL1201862, “PubChem BioAssay data set” (2004):
Calls of active or inactive are those of the source.

Legend:
Leucine aminopeptidase = biological target: T1, Leucine aminopeptidase (Plasmodium falciparum 3D7, UniProt Q8IL11); experiment: P. falciparum M17LAP inhibitors, primary screen, biochemical, fluorogenic H-Leu-NHMec substrate, 1536-well (AID 1619); assay type: functional
T1 sequence (Q8IL11 whole entry): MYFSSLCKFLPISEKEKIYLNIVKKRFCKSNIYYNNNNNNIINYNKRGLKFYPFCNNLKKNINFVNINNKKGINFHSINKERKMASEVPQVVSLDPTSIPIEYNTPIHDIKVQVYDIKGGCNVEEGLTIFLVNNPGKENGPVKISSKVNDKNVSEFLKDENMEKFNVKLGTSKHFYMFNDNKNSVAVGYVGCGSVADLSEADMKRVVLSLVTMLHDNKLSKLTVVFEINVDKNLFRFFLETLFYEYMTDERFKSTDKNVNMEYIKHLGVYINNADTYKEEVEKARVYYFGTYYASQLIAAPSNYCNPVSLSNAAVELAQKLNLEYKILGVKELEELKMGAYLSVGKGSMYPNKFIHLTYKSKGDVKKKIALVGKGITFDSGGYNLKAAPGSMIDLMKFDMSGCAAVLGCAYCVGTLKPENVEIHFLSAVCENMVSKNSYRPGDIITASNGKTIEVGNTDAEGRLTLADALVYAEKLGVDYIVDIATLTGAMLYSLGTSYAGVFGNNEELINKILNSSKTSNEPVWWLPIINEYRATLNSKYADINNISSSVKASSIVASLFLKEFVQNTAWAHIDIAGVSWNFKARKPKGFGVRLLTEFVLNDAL

Large T antigen = Large T antigen (Simian virus 40, UniProt P03070); assay type: functional, Betapolyomavirus macacae;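 further: Confirmatory-stage PubChem screen for compounds that inhibit SV40 T antigen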
Large T antigen, sequence (P03070 whole entry): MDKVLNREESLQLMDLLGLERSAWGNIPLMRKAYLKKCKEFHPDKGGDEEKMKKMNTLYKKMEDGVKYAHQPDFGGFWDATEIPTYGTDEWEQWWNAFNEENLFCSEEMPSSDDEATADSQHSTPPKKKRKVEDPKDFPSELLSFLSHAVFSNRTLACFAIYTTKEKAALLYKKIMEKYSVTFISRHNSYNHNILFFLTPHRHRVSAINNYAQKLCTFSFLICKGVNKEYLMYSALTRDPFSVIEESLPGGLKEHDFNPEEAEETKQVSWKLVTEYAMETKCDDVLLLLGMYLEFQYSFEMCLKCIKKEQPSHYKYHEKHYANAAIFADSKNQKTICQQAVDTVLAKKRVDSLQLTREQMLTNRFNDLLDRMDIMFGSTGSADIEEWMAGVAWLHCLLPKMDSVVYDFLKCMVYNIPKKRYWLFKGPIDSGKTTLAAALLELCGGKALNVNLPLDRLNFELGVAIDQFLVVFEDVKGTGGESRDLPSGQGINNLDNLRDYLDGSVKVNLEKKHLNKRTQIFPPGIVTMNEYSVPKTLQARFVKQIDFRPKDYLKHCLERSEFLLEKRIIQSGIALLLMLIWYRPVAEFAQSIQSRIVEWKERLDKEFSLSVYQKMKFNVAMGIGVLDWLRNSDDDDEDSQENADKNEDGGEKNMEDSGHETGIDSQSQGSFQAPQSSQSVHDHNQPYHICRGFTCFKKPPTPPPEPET

[1] = biological target: DNA dC->dU-editing enzyme APOBEC-3A (Homo sapiens, UniProt P31941); experiment: APOBEC3A DNA deaminase inhibitors, dose response, biochemical (AID 504722); assay type: functional
DNA dC->dU-editing enzyme APOBEC-3A, sequence (P31941 whole entry): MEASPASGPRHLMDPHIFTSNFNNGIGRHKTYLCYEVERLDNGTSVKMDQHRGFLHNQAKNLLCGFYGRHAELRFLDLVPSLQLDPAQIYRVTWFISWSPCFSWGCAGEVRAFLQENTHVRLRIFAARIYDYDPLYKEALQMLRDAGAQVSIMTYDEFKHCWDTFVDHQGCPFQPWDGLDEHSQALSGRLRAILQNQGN

[2] = biological target: DNA dC->dU-editing enzyme APOBEC-3G (Homo sapiens, UniProt Q9HC16); experiment: Dose Response confirmation of small molecule APOBEC3G DNA Deaminase Inhibitors via a fluorescence-based single-stranded DNA deaminase assay. [Related pubchem assays (depositor defined):AID493012, AID493028]; assay type: functional
DNA dC->dU-editing enzyme APOBEC-3G, sequence (Q9HC16 whole entry): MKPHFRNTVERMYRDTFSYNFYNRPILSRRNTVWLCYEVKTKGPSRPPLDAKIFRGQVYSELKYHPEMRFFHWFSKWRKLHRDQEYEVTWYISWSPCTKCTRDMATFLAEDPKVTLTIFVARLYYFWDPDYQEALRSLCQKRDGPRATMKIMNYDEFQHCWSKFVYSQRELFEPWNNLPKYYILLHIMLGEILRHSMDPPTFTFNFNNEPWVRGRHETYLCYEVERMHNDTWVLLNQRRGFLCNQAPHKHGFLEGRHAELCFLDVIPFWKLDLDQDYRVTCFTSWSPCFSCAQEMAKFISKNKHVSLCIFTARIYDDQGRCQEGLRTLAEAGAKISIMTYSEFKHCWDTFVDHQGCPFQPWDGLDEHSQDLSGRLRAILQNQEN

[3] = biological target: Heat shock protein HSP 90-alpha (Homo sapiens, UniProt P07900); assay type: functional, organism-based
[4] = microbe, parasite or virus in culture; assay type: functional; settings: Mycobacterium tuberculosis
[5] = Vero E6 cell cytotoxicity, dose response, cytotoxicity control for non-replicating M. tuberculosis project, secondary assay (AID 492998); assay type: functional, VeroE6; settings: Vero C1008
cells = assay type: functional
Genome polyprotein = Genome polyprotein (dengue virus type 2, UniProt P29990); experiment: Dengue-2 NS5 methyltransferase inhibitors, primary screen, biochemical, confirmation dose response (AID 588689); assay type: functional
Genome polyprotein, sequence (P29990 2492-3391 limits assumed): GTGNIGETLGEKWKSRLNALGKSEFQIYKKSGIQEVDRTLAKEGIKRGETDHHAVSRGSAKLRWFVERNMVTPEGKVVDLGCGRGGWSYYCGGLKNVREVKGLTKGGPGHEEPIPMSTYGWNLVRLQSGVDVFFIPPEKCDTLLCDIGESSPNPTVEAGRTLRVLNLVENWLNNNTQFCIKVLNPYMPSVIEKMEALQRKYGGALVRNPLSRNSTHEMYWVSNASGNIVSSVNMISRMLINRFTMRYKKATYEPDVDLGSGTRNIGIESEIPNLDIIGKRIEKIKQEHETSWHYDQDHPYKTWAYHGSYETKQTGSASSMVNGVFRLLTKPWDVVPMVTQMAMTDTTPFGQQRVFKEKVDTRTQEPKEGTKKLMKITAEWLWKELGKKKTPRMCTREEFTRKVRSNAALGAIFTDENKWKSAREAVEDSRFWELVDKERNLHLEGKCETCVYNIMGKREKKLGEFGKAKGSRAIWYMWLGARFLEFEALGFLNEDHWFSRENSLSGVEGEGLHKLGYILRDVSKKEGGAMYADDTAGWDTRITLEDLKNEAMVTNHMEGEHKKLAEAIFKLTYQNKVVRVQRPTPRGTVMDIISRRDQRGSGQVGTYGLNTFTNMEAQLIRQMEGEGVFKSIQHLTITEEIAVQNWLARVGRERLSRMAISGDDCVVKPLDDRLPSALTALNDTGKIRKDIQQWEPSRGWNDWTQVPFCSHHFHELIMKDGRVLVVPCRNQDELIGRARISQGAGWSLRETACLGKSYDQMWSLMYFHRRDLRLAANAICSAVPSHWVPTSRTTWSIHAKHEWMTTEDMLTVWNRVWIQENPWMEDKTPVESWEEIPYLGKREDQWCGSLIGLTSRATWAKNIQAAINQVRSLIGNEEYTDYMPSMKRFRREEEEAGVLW

[6] = biological target: Beta-2 adrenergic receptor (Homo sapiens, UniProt P07550); experiment: beta2AR agonists driving receptor internalization, dose response, cell-based, FAP fluorogen, flow cytometry, cherry pick 1 (AID 588763); assay type: functional
Beta-2 adrenergic receptor, sequence (P07550 whole entry): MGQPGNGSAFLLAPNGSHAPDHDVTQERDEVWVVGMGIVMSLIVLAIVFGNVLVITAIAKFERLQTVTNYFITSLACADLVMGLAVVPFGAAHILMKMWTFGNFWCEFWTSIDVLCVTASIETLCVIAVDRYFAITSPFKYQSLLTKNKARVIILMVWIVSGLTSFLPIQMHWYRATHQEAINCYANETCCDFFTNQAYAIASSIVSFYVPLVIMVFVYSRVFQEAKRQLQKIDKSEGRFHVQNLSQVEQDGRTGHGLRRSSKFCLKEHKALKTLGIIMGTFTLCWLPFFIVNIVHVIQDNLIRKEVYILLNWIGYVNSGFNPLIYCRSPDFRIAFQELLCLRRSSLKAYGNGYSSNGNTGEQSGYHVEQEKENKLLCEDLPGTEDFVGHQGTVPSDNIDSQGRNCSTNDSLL

Aminopeptidase N = biological target: T2, Aminopeptidase N (Plasmodium falciparum FcB1/Columbia, UniProt O96935); experiment: P. falciparum M1AAP inhibitors, biochemical, fluorogenic H-Leu-NHMec substrate, 1536-well (AID 1445); parameters: species or system Plasmodium falciparum 3D7, 3D7
T2 sequence (O96935 whole entry): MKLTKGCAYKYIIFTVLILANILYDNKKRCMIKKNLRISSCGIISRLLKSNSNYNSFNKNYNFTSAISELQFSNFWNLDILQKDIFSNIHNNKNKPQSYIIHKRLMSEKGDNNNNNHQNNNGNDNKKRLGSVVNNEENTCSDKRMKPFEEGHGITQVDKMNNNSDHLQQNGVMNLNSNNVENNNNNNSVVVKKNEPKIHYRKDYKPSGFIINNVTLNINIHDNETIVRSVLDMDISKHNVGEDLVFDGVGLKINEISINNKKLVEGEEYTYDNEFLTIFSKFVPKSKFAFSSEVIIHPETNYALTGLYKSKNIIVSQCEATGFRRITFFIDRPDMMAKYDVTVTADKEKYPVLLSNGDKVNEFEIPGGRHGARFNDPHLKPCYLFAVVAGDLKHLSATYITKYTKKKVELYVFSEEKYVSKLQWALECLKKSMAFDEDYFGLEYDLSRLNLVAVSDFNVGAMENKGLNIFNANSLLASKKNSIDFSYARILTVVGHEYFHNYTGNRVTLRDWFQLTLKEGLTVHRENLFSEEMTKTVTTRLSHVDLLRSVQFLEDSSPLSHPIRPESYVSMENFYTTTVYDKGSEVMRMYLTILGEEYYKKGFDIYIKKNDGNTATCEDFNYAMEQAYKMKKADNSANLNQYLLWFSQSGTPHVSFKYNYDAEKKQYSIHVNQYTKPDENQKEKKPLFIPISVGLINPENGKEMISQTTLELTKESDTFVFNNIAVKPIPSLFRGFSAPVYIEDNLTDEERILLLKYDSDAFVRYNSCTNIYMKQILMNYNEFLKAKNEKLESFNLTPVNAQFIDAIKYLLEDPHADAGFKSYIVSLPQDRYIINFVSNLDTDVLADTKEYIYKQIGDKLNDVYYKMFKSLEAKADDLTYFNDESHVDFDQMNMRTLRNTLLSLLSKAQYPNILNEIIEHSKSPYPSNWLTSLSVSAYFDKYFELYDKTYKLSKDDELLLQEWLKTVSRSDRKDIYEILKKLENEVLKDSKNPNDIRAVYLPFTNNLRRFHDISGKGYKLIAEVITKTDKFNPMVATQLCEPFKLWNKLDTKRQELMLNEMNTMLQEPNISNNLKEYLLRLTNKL

[7] = biological target: T3, Short transient receptor potential channel 4 (Mus musculus, UniProt Q9QUQ5); experiment: mouse TRPC4 channel activators, dose response, cell-based, HEK293 TRPC4/mu-opioid, Fluo-4 calcium (AID 434937); assay type: functional
T3 sequence (Q9QUQ5 whole entry): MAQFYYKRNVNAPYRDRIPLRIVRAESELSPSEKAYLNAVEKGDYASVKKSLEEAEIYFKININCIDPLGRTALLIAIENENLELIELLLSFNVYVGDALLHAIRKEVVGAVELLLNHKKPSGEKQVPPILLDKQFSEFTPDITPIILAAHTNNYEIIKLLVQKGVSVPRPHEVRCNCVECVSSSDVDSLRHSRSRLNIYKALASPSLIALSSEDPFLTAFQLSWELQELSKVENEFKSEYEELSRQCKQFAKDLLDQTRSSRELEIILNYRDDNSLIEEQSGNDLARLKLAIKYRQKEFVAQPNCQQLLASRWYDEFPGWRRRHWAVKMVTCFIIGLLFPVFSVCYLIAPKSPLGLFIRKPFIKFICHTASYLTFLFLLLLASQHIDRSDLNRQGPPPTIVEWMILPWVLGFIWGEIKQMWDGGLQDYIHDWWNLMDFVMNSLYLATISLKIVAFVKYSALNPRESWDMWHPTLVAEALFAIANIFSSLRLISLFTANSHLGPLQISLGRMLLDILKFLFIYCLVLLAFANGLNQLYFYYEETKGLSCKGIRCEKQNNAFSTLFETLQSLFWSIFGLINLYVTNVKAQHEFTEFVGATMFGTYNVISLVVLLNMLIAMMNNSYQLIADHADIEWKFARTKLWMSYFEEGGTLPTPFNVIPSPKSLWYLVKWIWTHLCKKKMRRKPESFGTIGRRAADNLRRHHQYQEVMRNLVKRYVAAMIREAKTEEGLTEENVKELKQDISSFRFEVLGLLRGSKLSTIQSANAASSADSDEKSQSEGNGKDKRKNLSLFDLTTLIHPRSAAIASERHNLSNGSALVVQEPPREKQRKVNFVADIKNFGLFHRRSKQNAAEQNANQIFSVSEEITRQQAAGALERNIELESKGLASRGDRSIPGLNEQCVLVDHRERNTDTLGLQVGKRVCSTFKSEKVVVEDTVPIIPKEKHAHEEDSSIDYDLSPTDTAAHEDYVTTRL

[8] = THP-1 cell cytotoxicity, dose response, cytotoxicity control for non-replicating M. tuberculosis project (AID 489025); assay type: functional
[9] = cytotoxicity in HEK-293T cells, dose response, cytotoxicity control for TCR NF-kB inhibitor project, luminescence, T-cell screen hits (AID 489026); assay type: functional, cell-based;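 further: cells exposed to compound about 14 hours before the viability readout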
[10] = biological target: T4, Ubiquitin-conjugating enzyme E2 N (Homo sapiens, UniProt P61088); assay type: functional;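 further: Dose-response confirmation in a TR-FRET assay detecting UBC13-driven polyubiquitin chain formation, inhibition measured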
T4 sequence (P61088 whole entry): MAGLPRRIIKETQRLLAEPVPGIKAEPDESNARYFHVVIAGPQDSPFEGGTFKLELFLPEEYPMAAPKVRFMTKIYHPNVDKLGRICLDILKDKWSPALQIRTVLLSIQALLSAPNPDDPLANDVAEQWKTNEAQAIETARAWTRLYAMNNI

[11] = biological target: T5, Rac GTPase-activating protein 1 (Homo sapiens, UniProt Q9H0H5); experiment: MgcRacGAP GTPase-activating activity inhibitors, confirmation, biochemical, ADP Hunter fluorescence, primary and confirmatory (AID 624330); assay type: functional
T5 sequence (Q9H0H5 whole entry): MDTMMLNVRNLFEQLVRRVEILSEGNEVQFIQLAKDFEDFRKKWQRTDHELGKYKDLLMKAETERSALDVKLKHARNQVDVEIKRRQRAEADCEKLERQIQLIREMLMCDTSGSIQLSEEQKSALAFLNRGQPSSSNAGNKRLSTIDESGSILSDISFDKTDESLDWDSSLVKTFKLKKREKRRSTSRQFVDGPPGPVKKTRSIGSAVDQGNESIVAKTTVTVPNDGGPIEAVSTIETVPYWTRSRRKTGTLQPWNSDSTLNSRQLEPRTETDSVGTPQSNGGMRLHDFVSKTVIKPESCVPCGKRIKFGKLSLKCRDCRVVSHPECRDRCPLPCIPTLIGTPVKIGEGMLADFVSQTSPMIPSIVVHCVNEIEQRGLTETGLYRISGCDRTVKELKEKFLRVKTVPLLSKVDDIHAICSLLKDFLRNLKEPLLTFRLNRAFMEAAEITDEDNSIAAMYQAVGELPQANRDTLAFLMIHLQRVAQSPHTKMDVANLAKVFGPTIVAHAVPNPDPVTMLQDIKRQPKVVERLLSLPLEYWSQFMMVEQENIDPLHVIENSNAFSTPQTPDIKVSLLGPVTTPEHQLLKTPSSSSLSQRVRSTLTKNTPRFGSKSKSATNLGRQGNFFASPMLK

[12] = Luminescence Cell-Based Dose Retest to Confirm Inhibitors of Cancer Stem Cells. [Related pubchem assays (depositor defined):AID2717, AID2721]; assay type: functional; settings: Homo sapiens

Oc1ccc(-c2n[nH]c(=S)[nH]2)cc1
IC50 (Leucine aminopeptidase): 20.6 µM (active) | IC50 (Large T antigen): 6.95 µM (active) | IC50 [1]: > 100 µM (inactive) | IC50 [2]: 4.02 µM (active)

Cc1cccc(C)c1NC(=O)COC(=O)c1ccc([N+](=O)[O-])o1
AC50 [3]: 2.57 µM (active)

Cc1ccc(C)c(-c2nnc(NC(=O)C3=COCCO3)o2)c1
CC50 [4]: > 40 µM (active) | CC50 [5]: 19 µM (active) | IC50 (cells): 6.12 µM (active)

CN(C)c1ccc(C=C2C(=O)NC(=O)NC2=O)cc1[N+](=O)[O-]
IC50 (Genome polyprotein): 16.3 µM (active)

Cn1c(S)nnc1-c1cc2c(C(F)(F)F)nn(C)c2s1
IC50 [1]: > 100 µM (inactive) | IC50 [2]: 1.84 µM (active)

c1nc(NCCN2CCOCC2)c2sc3nc(N4CCOCC4)c4c(c3c2n1)CCC4
EC50 [6]: 3.34 µM (active)

Cc1ccc2c(c1)c1nnc(SCC(=O)N3CCCc4ccccc43)nc1n2CC(=O)O
IC50 (Aminopeptidase N): 26.8 µM (active)

O=C(c1sc2ccccc2c1Cl)N(Cc1cccs1)C1CCS(=O)(=O)C1 (centres undefined)
EC50 [7]: 1.88 µM (active)

O=C(NCc1cccs1)C1CCN(S(=O)(=O)c2cccs2)CC1
IC50 (Aminopeptidase N): 51.9 µM (active)

CCOC(=O)c1sc2nc(CSc3ccccc3)nc(NCCN(C)C)c2c1C
CC50 [8]: 31.2 µM (active) | CC50 [5]: 17.8 µM (active) | IC50 (cells): 22.5 µM (active)

C/C=C(\C)C(=O)N[C@@H](c1ccccc1)[C@@H](O)C(=O)O[C@H]1C[C@@]2(O)[C@@H](OC(=O)c3ccccc3)C3[C@](C)(C(=O)[C@H](O)C(=C1C)C2(C)C)[C@@H](O)C[C@H]1OC[C@@]31OC(C)=O (some centres undefined)
IC50 [9]: > 80 µM (inactive)

O=C(Nc1ccccc1)c1ccccc1CCc1ccccc1
EC50 [6]: 1.7 µM (active)

CSc1ccc(CNC(=O)c2ccc(NC(=O)C3=CSCCO3)cc2)cc1
EC50 [6]: 0.0482 µM (active)

COC(=O)c1[nH]c2ccc(F)cc2c1NS(=O)(=O)c1ccc(OC)cc1
IC50 [9]: > 80 µM (inactive)

O=C(OCc1cccc([N+](=O)[O-])c1)c1cccnc1Cl
IC50 [10]: > 20 µM (inactive)

COC(=O)NCC(c1ccc2c(c1)OCO2)N1CCN(c2ccc(OC)cc2)CC1 (centres undefined)
EC50 [7]: 0.944 µM (active) | IC50 [11]: 123 µM (active)

CCc1ccc2nc(SCC(=O)Nc3ccccc3N3CCOCC3)c(C#N)cc2c1
AC50 [12]: 2.39 µM (active) | IC50 [9]: > 80 µM (inactive)

Cn1cncc1C#Cc1c(-c2ccsc2)sc2ccccc12
AC50 [12]: 4.68 µM (active) | AC50 [3]: 7.16 µM (active)

CC[C@@H](C)[C@@H]1CN([C@@H](C)CN2CCC[C@H]2CN2C(N)=NC[C@@H]2Cc2ccccc2)C(=N)N1CCCC1CCCC1
IC50 [10]: > 20 µM (inactive)

CN(C)c1ccc(/C=N/n2c(S)nnc2-c2cccnc2)cc1
IC50 [1]: > 100 µM (inactive) | IC50 [2]: 2.56 µM (active)

Cc1ccsc1/C=N/n1c(S)nnc1-c1ccncc1
IC50 [1]: > 100 µM (inactive) | IC50 [2]: 2.45 µM (active)
